Tests used:
recombinant human PKM2 = biological target: T1, recombinant human PKM2 (Homo sapiens, UniProt P14618); assay: Human PKM2 activation assay (Kinase-Glo Plus luminescent detection of generated ATP); type: biochemical; conditions: for Emax: percentage activation normalised to DMSO vehicle (LOW) and 5 μM TEPP-46 (HIGH), read-out: hPKM2 Emax; for EC50: recombinant human PKM2 activation, 4-parameter logistic fit, read-out: hPKM2 EC50
T1 construct: His (N); purchased R&D Systems
Outline: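 N-His-tagged recombinant hPKM2 ([…]) with PEP and ADP was incubated with compound for 60 min at 26 °C, shaking, in 50 mM imidazole, 50 mM KCl, 7 mM MgCl2, 0.01% Tween20, 0.05% BSA, pH 7.2. ATP produced was read by Kinase-Glo Plus luminescence after 15 min.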

A549 cells = assay: A549 cell proliferation in low-serine medium (CellTiter-Glo 2.0 viable cell number); type: cell-based; conditions: Homo sapiens, 72 h, 3 days, Assay Medium with 20 μM L-serine
Protocol: The effect of compounds of Formula (Ia) on A549 cell proliferation in low-serine medium was assessed using a luminescence assay of viable cell number (CellTiter-Glo® 2.0, Promega) duplexed with a fluorescent cytotoxicity assessment (CelITox™ Green, Promega). Cell culture reagents were from ThermoFisher unless specified otherwise. Assay reagents were from Sigma-Aldrich unless specified otherwise. Test Compounds were prepared as 10 mM DMSO stocks and dilution series prepared in DMSO for direct dilution into culture medium.
Cells were passaged every 3-4 days at 80-90% confluence. The cell monolayer was washed twice with room-temperature Ca^2+/Mg-free PBS and 4 ml room-temperature trypsin-EDTA added to the flask. After 5 minutes' incubation (37° C., 5% CO2) to detach cells, trypsin was quenched with 13 ml warmed complete growth medium and the cells harvested and diluted to 2.4×10^4 cells/ml for dispensing into 384-well clear-bottom black-walled plates (600 cells/well).
Following overnight incubation, growth medium was aspirated from each well and the cells washed twice with Assay Medium comprising Basal Medium Eagle supplemented with 3% heat-inactivated dialysed FBS plus 2 mM L-glutamine plus 20 μM L-serine (Sigma-Aldrich). After aspiration of the final wash medium, Assay Medium containing Test Compound was added to each well. DMSO vehicle controls were included on each plate.
Cells were incubated for 3 days in a humidified incubator (37° C., 5% CO2) at which point CelITox™ Green and CellTiter-Glo® reagents were prepared according to the manufacturer's instructions. Triton-X was added to HIGH wells for cytotoxicity determination and the plate incubated for 30 minutes (20° C., ambient humidity and pCO2). CelITox™ Green reagent was added to each well and the plate covered, placed on an orbital shaker @450 rpm for 2 minutes, and incubated in the dark for 15 minutes (20° C., ambient humidity and pCO2). Endpoint fluorescence was measured using a plate reader (PHERAstar® FSX, BMG Labtech).
Following cytotoxicity determination, CellTiter-Glo® reagent was added to each well and the plate placed on an orbital shaker @450 rpm for 2 minutes to lyse cells. Plates were incubated in the dark for 15-30 minutes (20° C., ambient humidity and pCO2) prior to endpoint luminescence measurement (PHERAstar® FSX, BMG Labtech).
Proliferation was calculated by normalizing luminescence signals to LOW controls obtained from a parallel plate processed at the time of Test Compound challenge and HIGH (DMSO vehicle) wells from the compound plate. IC50 values were determined from a 4-parameter logistic fit of compound concentration-response curves.

T1 sequence (P14618 2-531 limits assumed): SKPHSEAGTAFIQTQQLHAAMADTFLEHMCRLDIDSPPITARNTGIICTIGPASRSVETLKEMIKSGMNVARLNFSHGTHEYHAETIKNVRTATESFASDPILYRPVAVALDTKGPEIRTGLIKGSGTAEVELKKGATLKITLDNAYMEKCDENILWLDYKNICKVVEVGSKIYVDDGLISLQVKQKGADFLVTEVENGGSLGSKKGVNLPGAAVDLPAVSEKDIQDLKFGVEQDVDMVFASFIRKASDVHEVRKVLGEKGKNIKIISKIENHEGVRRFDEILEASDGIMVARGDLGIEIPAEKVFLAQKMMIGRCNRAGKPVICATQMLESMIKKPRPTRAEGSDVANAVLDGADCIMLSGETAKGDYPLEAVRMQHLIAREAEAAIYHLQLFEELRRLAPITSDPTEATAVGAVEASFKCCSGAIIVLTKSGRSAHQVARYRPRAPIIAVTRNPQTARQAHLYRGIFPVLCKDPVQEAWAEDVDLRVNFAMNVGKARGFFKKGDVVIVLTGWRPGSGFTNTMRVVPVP

| Compound | Emax (recombinant human PKM2) [%] | EC50 (recombinant human PKM2) [µM] | IC50 (A549 cells) [µM] |
| --- | --- | --- | --- |
| O=c1c2ccc(S(=O)(=O)c3ccccc3)cc2cnn1Cc1cccc2nccn12 [Example 34, 2-(imidazo[1,2-a]pyridin-5-ylmethyl)-6-(phenylsulfonyl)phthalazin-1(2H)-one] | 79 | 0.506 | 0.0648 |
| COc1ccc(S(=O)(=O)c2ccc3c(=O)n(Cc4cccn(C)c4=O)ncc3c2)cc1 [Example 4, 6-((4-methoxyphenyl)sulfonyl)-2-((1-methyl-2-oxo-1,2-dihydropyridin-3-yl)methyl)phthalazin-1(2H)-one] | 106 | 0.0539 | 0.0007 |
| COc1ccc(S(=O)(=O)c2ccc3c(=O)n(Cc4cccnc4)ncc3c2)cc1 [Example 42, 6-((4-methoxyphenyl)sulfonyl)-2-(pyridin-3-ylmethyl)phthalazin-1(2H)-one] | 103 | 0.0645 | 0.0015 |
| O=c1c2ccc(S(=O)(=O)c3ccccc3)cc2cnn1Cc1ccccc1F [Example 32, 2-(2-fluorobenzyl)-6-(phenylsulfonyl)phthalazin-1(2H)-one] | 99.6 | 0.163 | 0.0032 |
| O=c1c2ccc(S(=O)(=O)c3ccccc3)cc2cnn1C(CO)c1ccccc1 (stereo not drawn) [Example 19, 2-(2-hydroxy-1-phenylethyl)-6-(phenylsulfonyl)phthalazin-1(2H)-one] | 65.3 | 0.133 | 0.0042 |
| COc1ccc(S(=O)(=O)c2ccc3c(=O)n(Cc4cccc(OC(F)F)c4)ncc3c2)cc1 [Example 40, 2-(3-(difluoromethoxy)benzyl)-6-((4-methoxyphenyl)sulfonyl)phthalazin-1(2H)-one] | 90 | 0.0427 | 0.0037 |
| O=c1c2ccc(S(=O)(=O)c3ccccc3)cc2cnn1Cc1ccn(CCO)n1 [Example 10, 2-((1-(2-hydroxyethyl)-1H-pyrazol-3-yl)methyl)-6-(phenylsulfonyl)phthalazin-1(2H)-one] | 98.8 | 0.166 | 0.0078 |
| CCn1ccc(Cn2ncc3cc(S(=O)(=O)c4ccccc4)ccc3c2=O)n1 [Example 11, 2-((1-ethyl-1H-pyrazol-3-yl)methyl)-6-(phenylsulfonyl)phthalazin-1(2H)-one] | 99 | 0.0724 | 0.0039 |
| CNC(=O)c1occc1Cn1ncc2cc(S(=O)(=O)c3ccc(OC)cc3)ccc2c1=O [Example 17, 3-((6-((4-methoxyphenyl)sulfonyl)-1-oxophthalazin-2(1H)-yl)methyl)-N-methylfuran-2-carboxamide] | 54.9 | 0.112 | 0.0029 |
| O=c1c2ccc(S(=O)(=O)c3ccccc3)cc2cnn1Cc1cncc(O)c1 [Example 7, 2-((5-hydroxypyridin-3-yl)methyl)-6-(phenylsulfonyl)phthalazin-1(2H)-one] | 99.8 | 0.177 | 0.0067 |
| CC1(C)Cc2cc(Cn3ncc4cc(S(=O)(=O)c5ccccc5)ccc4c3=O)ccc2O1 [Example 35, 2-((2,2-dimethyl-2,3-dihydrobenzofuran-5-yl)methyl)-6-(phenylsulfonyl)phthalazin-1(2H)-one] | 110 | 0.183 | 0.0104 |

Further lines, results first:

| Emax (recombinant human PKM2) [%] | EC50 (recombinant human PKM2) [µM] | IC50 (A549 cells) [µM] | Compound |
| --- | --- | --- | --- |
| 87.9 | 0.0255 | 0.0005 | COc1ccc(S(=O)(=O)c2ccc3c(=O)n(Cc4ccc5c(c4)CCO5)ncc3c2)cc1 [Example 47, 2-((2,3-dihydrobenzofuran-5-yl)methyl)-6-((4-methoxyphenyl)sulfonyl)phthalazin-1(2H)-one] |
| 101 | 0.105 | 0.0041 | Cn1cc(Cl)c(Cn2ncc3cc(S(=O)(=O)c4ccccc4)ccc3c2=O)n1 [Example 76, 2-((4-chloro-1-methyl-1H-pyrazol-3-yl)methyl)-6-(phenylsulfonyl)phthalazin-1(2H)-one] |
| 98.9 | 0.0498 | 0.0067 | COc1cccc(Cn2ncc3cc(S(=O)(=O)c4ccccc4)ccc3c2=O)c1 [Example 81, 2-(3-methoxybenzyl)-6-(phenylsulfonyl)phthalazin-1(2H)-one] |
| 106 | 0.063 | 0.004 | Cc1nc(Cn2ncc3cc(S(=O)(=O)c4ccccc4)ccc3c2=O)cs1 [Example 77, 2-((2-methylthiazol-4-yl)methyl)-6-(phenylsulfonyl)phthalazin-1(2H)-one] |
| 107 | 0.138 | 0.0046 | COc1ccc(S(=O)(=O)c2ccc3c(=O)n(Cc4c(C)ccnc4O)ncc3c2)cc1 [Example 99, 2-((2-hydroxy-4-methylpyridin-3-yl)methyl)-6-(4-methoxyphenylsulfonyl)phthalazin-1(2H)-one] |
| 116 | 0.0954 | 0.0099 | CC(C)n1ccc(Cn2ncc3cc(S(=O)(=O)c4ccccc4)ccc3c2=O)n1 [Example 95, 2-((1-isopropyl-1H-pyrazol-3-yl)methyl)-6-(phenylsulfonyl)phthalazin-1(2H)-one] |
| 111 | 0.0425 | 0.0017 | COc1ccc(S(=O)(=O)c2ccc3c(=O)n(Cc4ccccc4N)ncc3c2)cc1 [Example 43, 2-(2-aminobenzyl)-6-((4-methoxyphenyl)sulfonyl)phthalazin-1(2H)-one] |
| 87.4 | 0.0809 | 0.0035 | COCC(c1ccccc1)n1ncc2cc(S(=O)(=O)c3ccc(OC)cc3)ccc2c1=O (stereo not drawn) [Example 82, 2-(2-methoxy-1-phenylethyl)-6-((4-methoxyphenyl)sulfonyl)phthalazin-1(2H)-one] |
| 132 | 0.178 | 0.002 | O=c1c2ccc(S(=O)(=O)c3ccccc3)cc2cnn1Cc1cc2ccccn2n1 [Example 108, 6-(phenylsulfonyl)-2-(pyrazolo[1,5-a]pyridin-2-ylmethyl)phthalazin-1(2H)-one] |
| 102 | 0.115 | 0.0141 | O=c1c2ccc(S(=O)(=O)c3ccccc3)cc2cnn1Cc1ccccc1 [Example 71, 2-benzyl-6-(phenylsulfonyl)phthalazin-1(2H)-one] |
| 82 | 0.257 | 0.009 | COc1ccc(S(=O)(=O)c2ccc3c(=O)n(Cc4ccc(C)nc4O)ncc3c2)cc1 [Example 98, 2-((2-hydroxy-6-methylpyridin-3-yl)methyl)-6-(4-methoxyphenylsulfonyl)phthalazin-1(2H)-one] |
| 94.9 | 0.0699 | 0.0022 | COc1ccc(S(=O)(=O)c2ccc3c(=O)n(Cc4c(Cl)ccnc4O)ncc3c2)cc1 [Example 102, 2-((4-chloro-2-hydroxypyridin-3-yl)methyl)-6-(4-methoxyphenylsulfonyl) phthalazin-1(2H)-one] |
| 93 | 0.142 | 0.0062 | COc1ccc(S(=O)(=O)c2ccc3c(=O)n(Cc4ccc(OC)cc4C(N)=O)ncc3c2)cc1 [Example 106, 5-methoxy-2-((6-(4-methoxyphenylsulfonyl)-1-oxophthalazin-2(1H)-yl)methyl)benzamide] |
| 104 | 0.0241 | 0.0035 | COc1ccc(S(=O)(=O)c2ccc3c(=O)n(Cc4ccc(OC)nc4)ncc3c2)cc1 [Example 51, 6-((4-methoxyphenyl)sulfonyl)-2-((6-methoxypyridin-3-yl)methyl)phthalazin-1(2H)-one] |
